Test results as given in publication PMC12592400, “A unique inhibitor conformation selectively targets the DNA polymerase PolC of Gram-positive priority pathogens” (Nature Communications, 2025).
Converted amounts (≈) assume the structure as drawn. Read-outs that look alike come from different tables or passages of the source.

What was measured:
[1] = test system: Enterococcus faecium ATCC 700221 (VRE; vancomycin-resistant); assay: Broth microdilution MIC; format: cell-based; settings: for MIC: Enterococcus faecium, read-out: Measured MIC; for Measured MIC: Table 2, polC WT, strain ATCC 700221
Method: (§1) Minimal inhibitory concentrations (MICs) were determined by WuXi Apptec, on behalf of Acurx Pharmaceuticals, Inc., for the Gram-positive pathogens: Enterococcus faecium ATCC 700221 (VRE; vancomycin-resistant), Enterococcus faecalis ATCC 29212, Staphylococcus aureus NRS384 (MRSA; methicillin-resistant), Staphylococcus aureus ATCC 29213 (MSSA; methicillin-sensitive), and Streptococcus pneumoniae ATCC 49619 (PRSP; penicillin-resistant). As a control, Gram-negative Escherichia coli ATCC 25922 was included. All strains were obtained from ATCC with the exception of Staphylococcus aureus NRS384, which was obtained from NARSA (Network on Antimicrobial Resistance in Staphylococcus aureus, now part of BEI resources). Bacteria were cultured according to the manuals provided by the suppliers and stored in 25% glycerol (final concentration) at –80 °C.
(§2) Bacterial strains were streaked out onto MHA plates (Mueller-Hinton II Agar; BD-211438) and incubated at 37 °C for 20 h except for S. pneumoniae and Enterococci, which were streaked on blood agar (Huankai-24070). S. pneumoniae was incubated in 5% CO2. Single colonies were suspended in 5 mL sterile saline, the turbidity was adjusted to 0.20 (Siemens MicroScan turbidity metre; equal to ~1.0 × 10^8 colony forming units (CFU)/mL) and then diluted 200x in MHIIB (Mueller-Hinton II […] (BD-211438)) medium. The MHIIB media was supplemented with 5% Lysed Horse Blood (Shanghai YuanMu Biological Technology Co. Ltd. YM-U161) for S. pneumoniae.
(§3) ACX compounds were dissolved in pure DMSO (Sigma 276855) to a concentration of 20 mg/mL. From this, twofold serial dilutions (from […]) in DMSO were transferred to a 96-well source-plate (Axygen-wipp02280) with pure DMSO as a control. 2 µL from the source plate was then transferred into 96-well culture plates (Costar 3788) and inoculated with 198 µL of the bacterial suspension so that each well contained ~5.0 × 10^5 CFU/mL bacteria, 1% DMSO and serially diluted compounds at 0 µg/mL and 0.0625-64 µg/mL in 100 µl medium. For NRS384, which was tested in a separate experiment, 99 µL of bacterial suspension was added to 1 µL of compound. The plates were incubated in ambient atmosphere at 37 °C for 20 h.

[2] = test system: Staphylococcus aureus NRS384 (MRSA; methicillin-resistant); assay: Broth microdilution MIC; format: cell-based; settings: read-out: Measured MIC
Method: as §1, §2, §3

[3] = test system: Escherichia coli ATCC 25922; assay: Broth microdilution MIC; format: cell-based
Method: as §1, §2, §3

[4] = test system: Streptococcus pneumoniae ATCC 49619 (PRSP; penicillin-resistant); assay: Broth microdilution MIC; format: cell-based; settings: read-out: Measured MIC
Method: as §1, §2, §3

[5] = test system: Staphylococcus aureus ATCC 29213 (MSSA; methicillin-sensitive); assay: Broth microdilution MIC; format: cell-based; settings: read-out: Measured MIC
Method: as §1, §2, §3

[6] = test system: Enterococcus faecalis ATCC 29212; assay: Broth microdilution MIC; format: cell-based
Method: as §1, §2, §3

[7] = test system: E. faecium strains with polC mutations (A1281T, F1276I, F1276L, F1276S); assay: Cross-resistance MIC of reduced susceptible E. faecium strains; format: cell-based, Enterococcus faecium; settings: for MIC: Enterococcus faecium; for raise of MIC by A1281T: E. faecium polC A1281T versus WT (Table 2)
Method: Strains with reduced susceptibility to ACX compounds were generated by WuXi Apptec on behalf of Acurx Pharmaceuticals, Inc., using E. faecium ATCC 700221 as parental strain.
Agar MICs for the wild-type strain were determined on Blood agar (Huankai). Compounds and linezolid were dissolved in 100% DMSO and vancomycin in ultrapure water. Strains were inoculated onto agar plates, incubated at 37 °C for 20-24 h after which colonies were suspended in sterile 0.9% saline at different bacterial concentrations. 5 μL of bacterial suspensions was individually spotted on agar plates supplemented with compounds at different concentrations, resulting in final concentrations of 10^–1, 10^–2, 10^–3, 10^–4, 10^–5, 10^–6, and 10^–7 per spot. After incubation for 20-24 h, bacterial growth was assessed by visual inspection.
For frequency of resistance (FOR) studies, colonies from the agar plate were suspended into sterile 0.9% saline to get 10^8-10^9 CFU bacterial cells per mL. […] The suspensions were also serially diluted with 0.9% saline and spotted onto agar to determine the actual inoculum. All agar plates were incubated at 37 °C for 48 h. FOR was defined as colony number on each compound-containing plate per CFU number of actual inoculum. Resistant colonies were subcultured on the corresponding compound plates to confirm that colonies were resistant and stable.
Confirmed resistant colonies were used for cross-resistance studies, as described above.
Paired-end short read sequencing data from selected mutants (generated by BGISEQ) as well as the corresponding wild-type parental strain was analysed against the reference genomes for E. faecium strain ATCC 700221 (https://genomes.atcc.org/genomes/f9d13a716ccb4f78) using Geneious R10.2.6 (Biomatters Ltd). Variants were called using the Find Variants/SNPs function with a minimum coverage of 10 and a minimum frequency of 0.8. […] This identified the following mutations in the polC gene: D1103Y in strain Efa4; F1276L in strains Efa030, Efa038, and Efa039; F1276I in strains Efa1 and Efa037; F1276S in strain Efa3; A1281T in strains Efa036, Efa040 and Efa041. Strains Efa036, Efa039, and Efa040 each had only one polymorphism identified.

[8] = read-out: Measured MIC, polC A1281T, strain Efa036, selected on 2 mg/L ACX-641
[9] = read-out: Measured MIC, polC A1281T, strain Efa040, selected on 4 mg/L ACX-671
[10] = read-out: Measured MIC, polC F1276I, strain Efa037, selected on 4 mg/L ACX-641
[11] = read-out: Measured MIC, polC F1276L, strain Efa030, selected on 16 mg/L ACX-728
[12] = read-out: Measured MIC, polC F1276S, strain Efa3, selected on 16 mg/L ACX-728
[13] = E. faecium VRE ATCC 700221, Table 1, single replicate
[14] = S. aureus MRSA NRS 384, Table 1, independent experiment
[15] = ATCC25922, E. coli ATCC 25922, Table 1, single replicate, read-out: Measured MIC
[16] = S. pneumoniae PRSP ATCC 49619, Table 1, single replicate
[17] = S. aureus ATCC 29213, Table 1, single replicate
[18] = ATCC29212, E. faecalis ATCC 29212, Table 1, single replicate, read-out: Measured MIC

CC(=O)NC[C@H]1CN(c2ccc(N3CCOCC3)c(F)c2)C(=O)O1 [LZD, linezolid]
MIC [1]: 4 µg/mL (≈ 11.9 µM)
Measured MIC [1]: 4 µg/mL
MIC [2]: 2 µg/mL (≈ 5.93 µM)
MIC ([3]; ATCC25922, read-out: Measured MIC): > 64 µg/mL
MIC [4]: 1 µg/mL (≈ 2.96 µM)
MIC [5]: 4 µg/mL (≈ 11.9 µM)
MIC ([6]; ATCC29212, read-out: Measured MIC): 2 µg/mL (≈ 5.93 µM)
MIC [7, 8]: 4 µg/mL
MIC [7, 9]: 4 µg/mL
MIC [7, 10]: 4 µg/mL
MIC [7, 11]: 4 µg/mL
MIC [7, 12]: 4 µg/mL

O=c1[nH]c(NCc2ccc(Cl)c(Cl)c2)nc2ncn(CCN3CCOCC3)c12 [IBZ, N^2-(3,4-dichlorobenzyl)-7-(2-[1-morpholinyl]ethyl)guanine]
MIC [1, 13]: 2 µg/mL (≈ 4.72 µM)
Measured MIC [1]: 2 µg/mL
MIC [2, 14]: 8 µg/mL (≈ 18.9 µM)
MIC [3, 15]: > 64 µg/mL
MIC [4, 16]: 2 µg/mL (≈ 4.72 µM)
MIC [5, 17]: 8 µg/mL (≈ 18.9 µM)
MIC [6, 18]: 8 µg/mL (≈ 18.9 µM)
raise of MIC by A1281T [7]: up to eightfold
MIC [7, 8]: 16 µg/mL
MIC [7, 9]: 8 µg/mL
MIC [7, 10]: > 64 µg/mL
MIC [7, 11]: > 64 µg/mL
MIC [7, 12]: 16 µg/mL

O=c1[nH]c(NCc2ccc3c(c2)OC(F)(F)O3)nc2c(F)nn(CCO)c12 [ACX-801, 5-(((2,2-difluorobenzo[d][1,3]dioxol-5-yl)methyl)amino)-3-fluoro-1-(2-hydroxyethyl)-1,6-dihydro-7H-pyrazolo[4,3-d]pyrimidin-7-one]
MIC [1, 13]: 1 µg/mL (≈ 2.61 µM)
Measured MIC [1]: 1 µg/mL
increased potency compared to IBZ ([1]; against Gram-positive bacteria, including MRSA and VRE (Table 1)): 2- to 4 fold
MIC [2, 14]: 2 µg/mL (≈ 5.22 µM)
MIC [3, 15]: > 64 µg/mL
MIC [4, 16]: 4 µg/mL (≈ 10.4 µM)
MIC [5, 17]: 2 µg/mL (≈ 5.22 µM)
MIC [6, 18]: 2 µg/mL (≈ 5.22 µM)
raise of MIC by A1281T [7]: up to 32 fold
MIC [7, 8]: 16 µg/mL
MIC [7, 9]: 32 µg/mL
MIC [7, 10]: > 64 µg/mL
MIC [7, 11]: 64 µg/mL
MIC [7, 12]: 32 µg/mL
